Consider eleven compounds from US4918074A, “Polyazaheterocycle compounds” (Yoshitomi Pharmaceutical Industries, Ltd., priority 1984, dated 1990).

Molecules are shown by their SMILES.

Data set [1] relates to left coronary blood flow. As to the kind of experiment: Coronary blood flow after injection into left coronary artery of anesthetized dogs. Conditions: intracoronary injection, anesthetized dog; dose to increase CBF by half of the effect of nifedipine (3 μg). The data set is classed as in vivo. On the procedure: (§1) Dogs of either sex were anesthetized with sodium pentobarbital (30 mg/kg i.v.). Heparin (500 U/kg i.v.) was administered before making preparation. Under artificial respiration (18 strokes/min, 20 ml/kg tidal volume), left ventricular dp/dt max, and left coronary blood flow were measured (1). Test compounds were injected into the left coronary artery in a volume of 10 or 30 μl. The effects of compounds on coronary blood flow were observed and presented generally as ED50, a dose required to increase coronary blood flow by a half of the effects of nifedipine (3 μg). Similarly, the effects on dp/dt max were observed and shown as ED30, a dose required to increase dp/dt max by 30% of the efffects of isoproterenol (0.1 μg).

Data set [2] deals with left ventricular dp/dt max. As to the kind of experiment: Left ventricular dp/dt max after injection into left coronary artery of anesthetized dogs. The data set is classed as in vivo. Conditions: intracoronary injection, anesthetized dog; dose to increase dp/dt max by 30% of effect of isoproterenol (0.1 μg). On the procedure: as §1
For data set [3], the system named is arterial blood pressure. As to the kind of experiment: Hypotensive effects in the anesthetized dog. The data set is classed as in vivo. Conditions: Canis lupus familiaris, iv, read-out: Hypotensive effect; for inhibition in vivo at 0.3 mg/kg: 300 μg/kg. On the procedure:
(§2) Adult mongrel dogs were anesthetized with sodium pentobarbital (30 mg/kg i.v.). Effects of test compounds on arterial blood pressure, coronary arterial blood flow, vertebral blood flow, renal blood flow, left ventricular dp/dt max (dp/dt max) and urine volume were observed. The compounds were administered intravenously (i.v.) or intraduodenally (i.d.).

Data set [4] concerns coronary arterial blood flow. As to the kind of experiment: Coronary vasodilating effects in the anesthetized dog. The data set is classed as in vivo. Conditions: Canis lupus familiaris, iv, read-out: Increase in coronary blood flow; for change in vivo at 0.3 mg/kg: 300 μg/kg. On the procedure:
as §2

Data set [5] has as its system Rabbit aorta. The data set can be described thus: Ca2+-agonistic and antagonistic activity in rabbit aorta. Conditions: compound 10^-6 M. On the procedure:
Rabbit aorta were isolated and cut into ring segments of about 2 mm. These preparations were suspended in 40 ml chambers filled with Krebs-Henseleit solution bubbled with a gas mixture of 95% O2 +5% CO2 (pH 7.4) and kept at 37° C. The contractile response to [K^+ ]o (9-48 mM) was measured in the absence or presence of test compounds (1).
That is, at lower [K^+ ]o these compounds augmented contractile force, however, at higher [K^+ ]o they produced only relaxation of aorta. [K^+ ]o, at which conversion of the effects of compounds (10^-6 M) occurred, was as follows.

The test system of data set [6] is Papillary muscle. As to the kind of experiment: Ca2+-agonistic and antagonistic action in rabbit myocardium (papillary muscle). Conditions: compound 10^-4 M. On the procedure: Papillary muscle was isolated from rabbit heart and suspended in 40 ml chamber filled with Krebs-Henseleit solution ([Ca^2+ ]o was elevated to 5 mM) bubbled with a gas mixture of 95% O2 +5% CO2 and kept at 37° C. The preparation was electrically driven at a rate of 0.5 Hz and developed tension was observed. [K^+ ]o was varied from 5.9 mM to 27 mM in the absence and presence of test compounds.
[K^+ ]o, at which conversion of the effects of compounds (10^-4 M) occurred, was as follows.

The subject of data set [7] is left ventricular dp/dt max. As to the kind of experiment: Cardiotonic effects in the anesthetized dog. The data set is classed as in vivo. Conditions: Canis lupus familiaris, iv, read-out: Increase in dp/dt max; for change in vivo at 0.3 mg/kg: 300 μg/kg. On the procedure:
as §2

In data set [8] the test system is ddY strain mice. As to the kind of experiment: Acute toxicity in mice. The data set is classed as in vivo. Conditions: five days after administration. The source says:
Compound (1), (10) and (23) were orally or intraperitoneally administered to ddY strain mice.

Data set [9] has as its system blood pressure, coronary, renal and heart function. As to the kind of experiment: Cardiovascular and renal activity in words. The data set is classed as in vivo.
The nature of data set [10]: Oral bioavailability in words. The data set is classed as in vivo.

As to `CC1=C(C(=O)OC(C)C)C(c2ccccc2Br)n2nccc2N1` (centres unmarked) [(27), 7-(2-Bromophenyl)-6-isopropoxycarbonyl-5-methyl-4,7-dihydropyrazolo[1,5-a]pyrimidine], the “Increase in CBF ED50” value in [1] was determined as 7 µg. Moreover, the “Increase in dp/dt max ED30” value in data set [2] was found to be 103 µg. Moreover, in data set [3] (30 μg/kg), the inhibition in vivo at 0.03 mg/kg stood at 20%. The change in vivo at 0.03 mg/kg in data set [4] (30 μg/kg) came to 37%. The “[K+]o at which conversion of Ca2+-agonistic to Ca2+-antagonistic action occurred” value (“[K+]o at which conversion” below) was 22 mM in data set [5] and 12 mM in data set [6].
Consider `CC1=C(C(=O)OC2CCCC2)C(c2ccccc2F)n2nccc2N1` (centres unmarked) [(25), 6-Cyclopentyloxycarbonyl-7-(2-fluorophenyl)-5-methyl-4,7-dihydropyrazolo[1,5-a]pyrimidine], for which the “Increase in CBF ED50” value in data set [1] is 28 µg. For the same compound, the “Increase in dp/dt max ED30” value in [2] was determined as 164 µg. Besides, in data set [6], the “[K+]o at which conversion” value was found to be 15 mM.
Regarding `CC1=C(C(=O)OC(C)C)C(c2ccccc2C)n2nccc2N1` (centres unmarked) [(30), 6-Isopropoxycarbonyl-5-methyl-7-(2-methylphenyl)-4,7-dihydropyrazolo[1,5-a]pyrimidine], the change in vivo at 0.3 mg/kg in data set [4] worked out at 47%; in data set [7] it was 46%. The figures for the “[K+]o at which conversion” value in data set [5] and in data set [6] were 28 mM and 15 mM, respectively.
In the case of `CC1=C(C(=O)OC(C)C)C(c2ccccc2C(F)(F)F)n2nccc2N1` (centres unmarked) [(10), 6-Isopropoxycarbonyl-5-methyl-7-(2-trifluoromethylphenyl)-4,7-dihydropyrazolo[1,5-a]pyrimidine], the “Increase in CBF ED50” value in data set [1] was 5.7 µg. In addition, the “Increase in dp/dt max ED30” value in data set [2] came to 71 µg. The inhibition in vivo at 0.3 mg/kg in data set [3] was 31%. Further, the change in vivo at 0.3 mg/kg in data set [4] was determined as 132%; in [7], 39%. For the same compound, the “[K+]o at which conversion” value in [5] worked out at 21 mM; in data set [6], 15 mM. Further, the Survival result is reported as “All mice survived” in data set [8] (intraperitoneal, 250 mg/kg) and “All mice survived” in [8] (oral, 1,000 mg/kg).
As for `CCOC(=O)C1=C(C)Nc2ccnn2C1c1ccccc1C(F)(F)F` (centres unmarked) [(1), 6-Ethoxycarbonyl-5-methyl-7-(2-trifluoromethylphenyl)-4,7-dihydropyrazolo[1,5-a]pyrimidine], the entries for the “[K+]o at which conversion” value in [5] and in [6] were 23 mM and 16 mM, respectively. Besides, the Survival entry in [8] (intraperitoneal, 250 mg/kg) is given as “All mice survived”; in [8] (oral, 1,000 mg/kg) it was “All mice survived”.
Take `CC(C)OC(=O)C1=C(COCCN)Nc2c(C#N)cnn2C1c1cccc(F)c1F` (centres unmarked) [isopropyl 5-(2-aminoethoxymethyl)-3-cyano-7-(2,3-difluorophenyl)-4,7-dihydropyrazolo[1,5-a]pyrimidine-6-carboxylate]: in [9], the Coronary vasodilating activity entry is listed as “high-selective coronary vasodilating activity”; the Diuretic activity result is reported as “potent diuretic activity”; the Heart-depressive activity entry is listed as “weak heart-depressive activity”; the Hypotensive activity entry was “mild and long-lasting hypotensive activity”. In addition, the “Renal blood flow increasing activity” value in [9] was “renal blood flow increasing activity”. In [10], the “Bioavailability by oral administration” value is listed as “higher bioavailability by the oral administration”.
In the case of `CCCOC(=O)C1=C(C)Nc2ccnn2C1c1ccccc1C(F)(F)F` (centres unmarked) [(11), 5-Methyl-6-propoxycarbonyl-7-(2-trifluoromethylphenyl)-4,7-dihydropyrazolo[1,5-a]pyrimidine], the change in vivo at 0.01 mg/kg in data set [4] (10 μg/kg) is 36%. For the same compound, the “[K+]o at which conversion” value in data set [5] is on record as 22 mM.
As to `CC1=C(C(=O)OC(C)(C)C)C(c2ccccc2C(F)(F)F)n2nccc2N1` (centres unmarked) [(13), 6-tert-Butoxycarbonyl-5-methyl-7-(2-trifluoromethylphenyl)-4,7-dihydropyrazolo[1,5-a]pyrimidine], the “Increase in CBF ED50” value in [1] worked out at 22 µg. Moreover, in data set [2], the “Increase in dp/dt max ED30” value came out at 70 µg. The change in vivo at 0.3 mg/kg is 34% in data set [4] and 39% in [7]. The “[K+]o at which conversion” value in data set [5] is recorded as 24 mM; in data set [6], 14 mM.
As to `CCCCOC(=O)C1=C(C)Nc2ccnn2C1c1ccccc1C(F)(F)F` (centres unmarked) [(3), 6-Butoxycarbonyl-5-methyl-7-(2-trifluoromethylphenyl)-4,7-dihydropyrazolo[1,5-a]pyrimidine], the change in vivo at 0.1 mg/kg in [4] (100 μg/kg) was found to be 36%; in [7] (100 μg/kg), 20%. Moreover, the “[K+]o at which conversion” value in [5] is 24 mM.
With `CC1=C(C(=O)OC(C)C)C(c2ccccc2F)n2nccc2N1` (centres unmarked) [(23), 7-(2-Fluorophenyl)-6-isopropoxycarbonyl-5-methyl-4,7-dihydropyrazolo[1,5-a]pyrimidine], in [1], the “Increase in CBF ED50” value stood at 15 µg. Moreover, the “Increase in dp/dt max ED30” value in data set [2] worked out at 71 µg. In addition, the inhibition in vivo at 0.3 mg/kg in [3] came to 32%. Moreover, the change in vivo at 0.3 mg/kg came out at 157% in data set [4] and 44% in data set [7]. For the same compound, the “[K+]o at which conversion” value turned out to be 19 mM in data set [5] and 12 mM in [6]. The Survival entry in [8] (intraperitoneal, 250 mg/kg) is “All mice survived”; in data set [8] (oral, 1,000 mg/kg), “All mice survived”.
For the compound `CC1=C(C(=O)OC2CCCC2)C(c2ccccc2C(F)(F)F)n2nccc2N1` (centres unmarked) [(15), 6-Cyclopentyloxycarbonyl-5-methyl-7-(2-trifluoromethylphenyl)-4,7-dihydropyrazolo[1,5-a]pyrimidine], the “Increase in CBF ED50” value in data set [1] is 1.8 µg. For the same compound, the “Increase in dp/dt max ED30” value in data set [2] worked out at 198 µg. Besides, in data set [3], the inhibition in vivo at 0.3 mg/kg is 20%. Besides, the change in vivo at 0.3 mg/kg in data set [4] came out at 125%; in data set [7], 83%. The “[K+]o at which conversion” value in data set [5] is listed as 20 mM; in data set [6], 18 mM.
